# Measurements from patent US9889123B2, “Polymorphs of deuterated omega-diphenylurea or salts thereof” (Suzhou Zelgen Biopharmaceuticals Co., Ltd., priority 2012, dated 2018).
# Key:
# Type in all cases: physicochemical
# [1] = Accelerated stability test; conditions: 40° C., 75% RH, 1-6 months
# [2] = Solubility in solvents (description of the compound)
# Description: The compound of formula I, with a molecular formula of C21H13D3ClF3N4O3 and a molecular weight of 467.84, is a white or off-white crystal powder, odorless and tasteless.
# [3] = Drug hygroscopicity test (Chinese Pharmacopoeia 2010 edition, Appendix XIX J); conditions: humidistatic dryer (saturated ammonium sulfate) at 25° C.±1° C. for 24 hours
# Description: Take 4 dry glass weighing bottles with a top (The outer diameter was 60 mm and height was 30 mm). On the day before the test, the bottles was placed in a glass dryer (A saturated ammonium sulfate solution was placed in the lower part thereof) in a thermostatic and humidistatic chamber at 25° C.±1° C. (hereinafter, “a humidistatic dryer at 25° C.±1° C.”). The weighing bottle and its top were placed separately without the top on the bottle. Cover the glass dryer closely.
# After each empty weighing bottle together with its top were placed in a humidistatic dryer at 25° C.±1° C. for 24 hours, weigh a set (the weighing bottle+its top) as a unit precisely respectively, recorded as m1. Take a sample appropriately, tile it in a glass weighing bottle weighed at a sample thickness of about 1 mm, and cover the bottle. Precisely weigh the weighing bottle with its top and the sample, recorded as m2. […] Then take off the top of the weighing bottles, and put the bottle and its top in the humidistatic dryer at 25° C.±1° C. for 24 hours.
# After each sample were placed in a humidistatic dryer at 25° C.±1° C. for 24 hours, cover the weighing bottles with their tops respectively, and precisely weigh each weighing bottle with its top and the sample at this specific moment, recorded as m3. […]
structure (smiles),measurement,setting,value
"Cc1ccc(S(=O)(=O)O)cc1.[2H]C([2H])([2H])NC(=O)c1cc(Oc2ccc(NC(=O)Nc3ccc(Cl)c(C(F)(F)F)c3)cc2)ccn1.[2H]C([2H])([2H])NC(=O)c1cc(Oc2ccc(NC(=O)Nc3ccc(Cl)c(C(F)(F)F)c3)cc2)ccn1 [polymorph V, 1/2 p-toluenesulfonate of 4-(4-{3-[4-chloro-3-(trifluoromethyl)phenyl)-ureido]-phenoxy}-2-(N-1′,1′,1′-trideutero-methyl)pico linamide]",stability of crystal form,[1],very stable
"CNC(=O)c1cc(Oc2ccc(NC(=O)Nc3ccc(Cl)c(C(F)(F)F)c3)cc2)ccn1.Cc1ccc(S(=O)(=O)O)cc1 [polymorph II, methanol solvate of the 1/1 p-toluenesulfonate of 4-(4-{3-[4-chloro-3-(trifluoromethyl)phenyl)-ureido]-phenoxy}-2-(N-1′,1′,1′-trideutero-methyl)pico linamide]",stability of crystal form,[1],very stable
"[2H]C([2H])([2H])NC(=O)c1cc(Oc2ccc(NC(=O)Nc3ccc(Cl)c(C(F)(F)F)c3)cc2)ccn1 [compound of formula I, 4-(4-{3-[4-chloro-3-(trifluoromethyl)phenyl)-ureido]-phenoxy}-2-(N-1′,1′,1′-trideutero-methyl)picolinamide]",solubility in acetone,[2]; solvent acetone,slightly soluble
same,solubility in anhydrous ethanol,[2]; solvent anhydrous ethanol,slightly soluble
same,solubility in dimethyl formamide,[2]; solvent dimethyl formamide,very soluble
same,solubility in dimethyl sulfoxide,[2]; solvent dimethyl sulfoxide,very soluble
same,solubility in glacial acetic acid,[2]; solvent glacial acetic acid,slightly soluble
same,solubility in methanol,[2]; solvent methanol,sparingly soluble
same,solubility in water,[2]; solvent water,practically insoluble
"Cc1ccc(S(=O)(=O)O)cc1.[2H]C([2H])([2H])NC(=O)c1cc(Oc2ccc(NC(=O)Nc3ccc(Cl)c(C(F)(F)F)c3)cc2)ccn1 [polymorph I, 1/1 p-toluenesulfonate of 4-(4-{3-[4-chloro-3-(trifluoromethyl)phenyl)-ureido]-phenoxy}-2-(N-1′,1′,1′-trideutero-methyl)picolinamide]",stability of crystal form,[1],very stable
same,purity after accelerated stability test,[1]; compared to freshly prepared (0 Months),above 99%
same,hygroscopicity,[3],no hygroscopicity
same,weight increase (%),[3],0%
"[2H]C([2H])([2H])NC(=O)c1cc(Oc2ccc(NC(=O)Nc3ccc(Cl)c(C(F)(F)F)c3)cc2)ccn1 [polymorph VI, 4-(4-{3-[4-chloro-3-(trifluoromethyl)phenyl)-ureido]-phenoxy}-2-(N-1′,1′,1′-trideutero-methyl)picolinamide]",stability of crystal form,[1],very stable
"CCO.Cc1ccc(S(=O)(=O)O)cc1.[2H]C([2H])([2H])NC(=O)c1cc(Oc2ccc(NC(=O)Nc3ccc(Cl)c(C(F)(F)F)c3)cc2)ccn1 [polymorph IV, ethanol solvate of the 1/1 p-toluenesulfonate of 4-(4-{3-[4-chloro-3-(trifluoromethyl)phenyl)-ureido]-phenoxy}-2-(N-1′,1′,1′-trideutero-methyl)pico linamide]",stability of crystal form,[1],very stable
